Consider 15 compounds from patent US9776972B2, “Pyrazole derivatives as arginine methyltransferase inhibitors and uses thereof” (priority 2013, dated 2017).

The target of this test is human PRMT3 (Homo sapiens, UniProt O60678). Briefly: PRMT3 Biochemical Assay (3H-SAM Flashplate, peptide substrate). To be noted: single experiment or average of multiple experiments. The text has this: S-adenosylmethionine (SAM), S-adenosylhomocysteine (SAH), bicine, Tween20, dimethylsulfoxide (DMSO), bovine skin gelatin (BSG), isopropyl-β-D-thiogalactopyranoside (IPTG), and Tris(2-carboxyethyl)phosphine hydrochloride solution (TCEP) were purchased from Sigma-Aldrich at the highest level of purity possible. ^3H-SAM was purchase from American Radiolabeled Chemicals with a specific activity of 80 Ci/mmol. 384-well streptavidin Flashplates were purchased from PerkinElmer.
Chain of human PRMT3 (O60678 with tags, fused parts or gaps): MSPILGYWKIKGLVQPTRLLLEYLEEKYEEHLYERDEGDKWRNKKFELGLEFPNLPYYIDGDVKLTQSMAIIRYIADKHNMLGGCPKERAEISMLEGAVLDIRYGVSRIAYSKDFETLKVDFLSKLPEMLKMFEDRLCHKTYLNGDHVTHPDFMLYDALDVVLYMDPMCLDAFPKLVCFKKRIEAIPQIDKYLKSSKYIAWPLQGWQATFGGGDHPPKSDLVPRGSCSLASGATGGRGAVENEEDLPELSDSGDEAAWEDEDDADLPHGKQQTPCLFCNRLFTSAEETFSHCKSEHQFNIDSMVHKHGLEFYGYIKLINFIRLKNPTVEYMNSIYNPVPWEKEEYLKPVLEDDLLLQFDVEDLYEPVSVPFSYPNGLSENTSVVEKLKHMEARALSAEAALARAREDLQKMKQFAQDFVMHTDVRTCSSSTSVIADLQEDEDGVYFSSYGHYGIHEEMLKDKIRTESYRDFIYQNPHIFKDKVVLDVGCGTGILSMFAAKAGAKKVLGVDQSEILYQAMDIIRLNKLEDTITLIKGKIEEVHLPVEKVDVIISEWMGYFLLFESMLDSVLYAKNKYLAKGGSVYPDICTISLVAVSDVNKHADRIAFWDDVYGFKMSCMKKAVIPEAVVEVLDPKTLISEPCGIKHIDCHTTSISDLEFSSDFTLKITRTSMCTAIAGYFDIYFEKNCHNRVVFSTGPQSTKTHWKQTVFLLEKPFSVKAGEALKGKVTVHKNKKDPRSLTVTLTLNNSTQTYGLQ
Peptide containing the classic RMT substrate motif was synthesized with an N-terminal linker-affinity tag motif and a C-terminal amide cap by 21st Century Biochemicals. The peptide was purified by high-performance liquid chromatography (HPLC) to greater than 95% purity and confirmed by liquid chromatography mass spectrometry (LC-MS). The sequence was Biot-Ahx-[…]-amide (SEQ ID NO.:11).
Full-length human PRMT3 (NM_005788.3) isoform 1 transcript clone was amplified from an HEK 293 cDNA library and subcloned into pGEX-KG (GE Life Sciences). The resulting construct encodes an N-terminal GST tag and a thrombin cleavage sequence ([…] […] […] […]) (SEQ ID NO.: 12) fused directly to Cys 2 of PRMT3.
E. coli (BL21(DE3) Gold, Stratagene) made competent by the CaCl2 method were transformed with the PRMT3 construct and ampicillin selection. Protein over-expression was accomplished by growing the PRMT3 expressing E. coli clone and inducing expression with 0.3 mM IPTG at 16° C. The culture was grown for 12 hours, harvested by centrifugation, and stored at −80° C. for purification.
GST-tagged PRMT3 was eluted with 50 mM Tris, 2 mM glutathione, pH 7.1 and 50 mM Tris, 20 mM glutathione, pH 7.1. Pooled fractions were dialysed in 20 mM Tris, 50 mM NaCl, 5% glycerol, 1 mM EDTA, 1 mM DTT, pH7.5 (Buffer B) and applied to a Q Sepharose Fast Flow column. GST-tagged PRMT3 was eluted by 500 mM NaCl in buffer B. Pooled fractions were dialyzed in 25 mM phosphate buffer, 100 mM NaCl, 5% glycerol, 2 mM DTT, pH 6.8 (Buffer C) and loaded on to a ceramic hydroxyapatite column. GST-tagged PRMT3 eluted with 25-400 mM phosphate in buffer C. Protein was concentrated and buffer was exchanged to 20 mM Tris, 150 mM NaCl, 5% glycerol, 5 mM β-mercaptoethanol, pH7.8 by ultrafiltration. The purity of recovered protein was 70%.
General Procedure for PRMT3 Enzyme Assays on Peptide Substrates.
The assays were all performed in a buffer consisting of 20 mM Bicine (pH=7.6), 1 mM TCEP, 0.005% BSG, and 0.002% Tween 20, prepared on the day of use. Compounds in 100% DMSO (1 ul) were spotted into a polypropylene 384-well V-bottom plates (Greiner) using a Platemate Plus outfitted with a 384-channel head (Thermo Scientific). DMSO (1 ul) was added to Columns 11, 12, 23, 24, rows A-H for the maximum signal control and 1 ul of SAH, a known product and inhibitor of PRMT3, was added to columns 11, 12, 23, 24, rows I-P for the minimum signal control. A cocktail (40 ul) containing the PRMT3 enzyme was added by Multidrop Combi (Thermo-Fisher). The compounds were allowed to incubate with PRMT3 for 30 min at room temperature, then a cocktail (10 ul) containing SAM and peptide was added to initiate the reaction (final volume=51 ul). The final concentrations of the components were as follows: PRMT3 was 0.5 nM, ^3H-SAM was 100 nM, non-radiolabeled SAM was 1.8 uM, peptide was 330 nM, SAH in the minimum signal control wells was 1 mM, and the DMSO concentration was 2%. The assays were stopped by the addition of potassium chloride (10 ul) to a final concentration of 100 mM. 50 ul of the reaction in the 384-well polypropylene plate was then transferred to a 384-well Flashplate and the biotinylated peptides were allowed to bind to the streptavidin surface for at least 1 hour before being washed once with 0.1% Tween20 in a Biotek ELx405 plate washer. […]

SMILES strings stand for the structures. Some results are limits rather than exact numbers.

Broadly, the IC50 is the point on the concentration scale where inhibition reaches its midpoint. Low values mean inhibition by little substance, high ones a need for much substance. Compound `CNCCN(C)Cc1cnn(C2CC2)c1-c1ccc(F)cc1` [Compound 14] registered an IC50 of 23.3 µM.

On to `CNCCN(C)Cc1cnn(C(C)C)c1-c1ccc(F)cc1` [Compound 16], for which the 50% inhibitory concentration (IC50) is greater than 50 µM.

As to `CNCCN(C)Cc1cn[nH]c1-c1ccc(C#N)cc1` [Compound 17], the IC50 stood at 2.79 µM.

In turn, `CNCCN(C)Cc1cn[nH]c1-c1cc(F)cc(F)c1` [Compound 18] yielded an IC50 of 7.43 µM.

Take `CN(CCN)Cc1n[nH]cc1-c1ccc(C2CCOCC2)cc1` [Compound 145]: the IC50 was determined as 7.18 µM.

Compound `COc1ccc(-c2n[nH]cc2CN(C)CCN)c(Cl)c1` [Compound 146] gave an IC50 of 9 µM.

Take `CN(CCN)Cc1c[nH]nc1-c1cccc(N(C)C)c1` [Compound 149]: the IC50 was determined as 9.02 µM.

`Cc1cc(F)ccc1-c1n[nH]cc1CN(C)CCN` [Compound 152]: it took 9.63 µM to reach half-maximal inhibition (IC50).

In turn, `COc1ccc(-c2n[nH]cc2CN(C)CCN)cc1` [Compound 153] came in with a half-inhibitory concentration (IC50) of 4.1 µM.

`COc1ccc(-c2n[nH]cc2CN(C)CCN)c(C)c1` [Compound 155] showed an IC50 of 8.56 µM.

Consider `Cc1ccc(-c2n[nH]cc2CN(C)CCN)cc1` [Compound 162], for which half-maximal inhibition (IC50) required 3.52 µM.

Compound `CCOc1ccc(-c2n[nH]cc2CN(C)CCN)cc1` [Compound 166] returned a 50% inhibitory concentration (IC50) of 3.45 µM.

`COCCOc1ccc(-c2n[nH]cc2CN(C)CCN)cc1` [Compound 167] gave a half-maximal inhibitory concentration (IC50) of 3.74 µM.

For the compound `CC(C)Cc1ccc(-c2c[nH]nc2CN(C)CCN)cc1` [Compound 170], half-maximal inhibition (IC50) required 7.33 µM. This IC50 lies about 2-fold higher than the previous one.

`CN(CCN)Cc1c[nH]nc1-c1ccc(OCCN2CCOCC2)cc1` [Compound 172] yielded an IC50 of 3.41 µM.
